Measured values from publication PMC8153121, “N-Alkylation of Anthracycline Antibiotics by Natural Sesquiterpene Lactones as a Way to Obtain Antitumor Agents with Reduced Side Effects” (Biomedicines, 2021).
Like-named read-outs stand apart in the source and are kept apart here.

What was measured:
A549 (lung carcinoma) = experiment: MTT cell viability test, A549; format: cell-based, Human; conditions: read-out: IC50, A549
Description: (§1) Human cell cultures of tumor origin (A549 (lung carcinoma), HCT116 (colon adenocarcinoma), MCF7 (breast cancer), RD (embryonic rhabdomyosarcoma)), and the line of non-transformed cells HEK293 (embryonic kidney) provided by the Laboratory of Tumor Cell Genetics at the N.N. Blokhin Russian Cancer Research Institute, as well as by the Institute of Cytology of the Russian Academy of Sciences, were grown in DMEM (Gibco, Scotland, UK) and MEM (Gibco, Scotland, UK) containing fetal calf serum (10% by volume) (ThermoFisher Scientific, Paisley, UK), L-glutamine (2 mM) (Gibco, Scotland, UK), and penicillin-streptomycin (1% by volume) (PanEco, Moscow, Russia).
(§2) Cellular viability was determined by the MTT test. […] After 24 h of incubation, various concentrations of the test compounds dissolved in DMSO (≤1%) were added to the cell cultures, the solvent was added to the control wells in an equal volume, and then the cells were cultured under the same conditions for 72 h. After the incubation time, MTT (3-(4,5-dimethylthiazol-2-yl)-2,5-diphenyltetrazolium bromide, 5 mg/mL) was added to each well, and the plates were further incubated for 2 h (until a characteristic color appeared). Then, the formazan granules were dissolved in DMSO.
(§3) Using a plate analyzer (Cytation3, BioTech Instruments Inc., USA), the optical density was determined at λ = 530 nm.

rat heart mitochondria = experiment: Mitochondrial swelling; format: biochemical; conditions: rat heart mitochondria 0.5 mg/mL, compounds at 100 μM, Ca2+ 25 μM
Description: (§4) Rat heart mitochondria were isolated by differential centrifugation using ice-cold buffer containing KCl (120 mM) and HEPES (20 mM), pH = 7.4, and a trypsin inhibitor. The mitochondrial yield ranged from 5 to 10 mg/mL of protein in the heart sediment. Mitochondria were stored in plastic containers at 4 °C.
Mitochondrial swelling was recorded by the light transmission of the rat heart mitochondrial suspension at λ = 540 nm using a Victor 3 plate analyzer (Perkin Elmer, Germany). The swelling rate was estimated as △A540/min and was calculated as the tangent of the angle of the steepest dependence curve part △A540 versus time.

MCF7 (breast cancer) = experiment: MTT cell viability test, MCF7; format: cell-based, Human; conditions: read-out: IC50, MCF7
Description: as §1, §2, §3

[1] = system: lipid peroxidation (LPO) of rat brain homogenate; experiment: Lipid peroxidation of rat brain homogenate (TBA test); format: biochemical; conditions: rat brain homogenate 2 mg/mL, Fe2+ 500 μM, compound 100 μM
Description: To obtain a brain homogenate, decapitation of rats anesthetized in advance with CO2 was performed using a guillotine. The brain was homogenized in a buffer containing KCl (120 mM) and HEPES (20 mM) (Gibco, Scotland, UK), pH = 7.4, at 4 °C and centrifuged at 1500 rpm to obtain a supernatant.
To study the effect of compounds on the process of lipid peroxidation (LPO) of rat brain homogenate, we used a modified version of the TBA test, which is based on the reaction of 2-thiobarbituric acid with the final LPO product—malonic dialdehyde (MDA). According to the experimental scheme, the well of the plate contained the studied compounds (100 μM), rat brain homogenate (2 mg/mL), as well as 500 μM ferrous iron ions (FeSO4 × […]). After 30 min of incubation at 37 °C, TBA reagent was added to all samples, incubated for 90 min at 90 °C, and centrifuged at 6000 rpm for 15 min. The optical density of the selected supernatant was measured on a Victor 3 plate analyzer (Perkin Elmer, Germany […]) at λ = 540 nm.

[2] = target: T1, complex II of the electron transport chain (Rattus norvegicus, UniProt P21913+Q641Z9+Q6PCT8+Q920L2); experiment: Respiratory chain complex II, OCR of isolated rat heart mitochondria (Seahorse); format: biochemical; conditions: isolated rat heart mitochondria 10 μg/well, compounds at 30 μM
T1 construct: Rat heart mitochondria were isolated by differential centrifugation; from tissue; host or cells: rat heart mitochondria
Description: as §4
(§5) The effect of the compounds on the functioning of the electron transport chain complexes was carried out using an Agilent Seahorse XF96e Analyzer (Seahorse Bioscience, Billerica, MA, USA) according to their ability to change the rate of oxygen uptake by isolated rat heart mitochondria (10 μg/well). The following modulators were used: activators of complex I of the electron transport chain, NADH dehydrogenase,—glutamate/malate; rotenone (2 μM) (Sigma Aldrich, Saint Louis, USA)—a tissue respiration blocker that stops the transfer of electrons from the reduced form of NADH to cytochrome b, was used as complex I inhibitor; potassium succinate ([…]) (Dia-M, Moscow, Russia), which is a substrate of complex II of the electron transport chain, made it possible to assess mitochondrial respiration mediated by succinate dehydrogenase; complex III (ubiquinol-cytochrome c-oxidoreductase) inhibitor—a blocker of cellular respiration antimycin A (Sigma Aldrich, Saint Louis, USA), as well as ascorbate/TMPD (0.5 μM) (Sigma Aldrich, Saint Louis, USA), allowed us to evaluate the cytochrome-c-oxidase mediated respiration of organelles.

[3] = system: RD (embryonic rhabdomyosarcoma); experiment: MTT cell viability test, RD; format: cell-based, Human; conditions: 72 h, read-out: IC50, RD
Description: as §1, §2, §3

[4] = system: HEK293 (embryonic kidney); experiment: MTT cell viability test, non-transformed HEK293; format: cell-based, Human; conditions: read-out: IC50, HEK293
Description: as §1, §2, §3

[5] = system: HCT116 (colon adenocarcinoma); experiment: MTT cell viability test, HCT116; format: cell-based, Human; conditions: read-out: IC50, HCT116
Description: as §1, §2, §3

[6] = target: T2, cytochrome-c-oxidase complex of the mitochondrial respiratory chain (IV) (Rattus norvegicus, UniProt P00406+P05503+P05505); experiment: Respiratory chain complex IV, OCR of isolated rat heart mitochondria (Seahorse); format: biochemical; conditions: isolated rat heart mitochondria 10 μg/well, compounds at 30 μM
T2 construct: Rat heart mitochondria were isolated by differential centrifugation; from tissue; host or cells: rat heart mitochondria
Description: as §4, §5

[7] = system: HeLa cervical tumor cell line; experiment: Glycolysis stress test (Seahorse, extracellular acidification rate); format: cell-based; conditions: HeLa cells, test substances 30 μM
Description: The ability of the studied compounds to modulate anaerobic glycolysis was investigated using the Agilent Seahorse XF96e Analyzer (Seahorse Bioscience, Billerica, MA, USA) according to the level of hydrogen proton production in the samples on the HeLa cervical tumor cell line by the glycolysis stress test.
HeLa cells in the exponential growth phase were plated into a 96-well cell culture microplate Seahorse (the density of the cell culture was 3 × 10^4/well). After 24 h, the rate of medium extracellular acidification by cells treated with the test compounds was recorded in real time during the sequential injection of modulators: glucose (10 mM) (Dia-M, Moscow, Russia), oligomycin (1 μM) (Sigma Aldrich, Saint Louis, USA), 2-fluoro-2-deoxy-D-glucose (25 mM) (Sigma Aldrich, Saint Louis, USA). This allowed us to estimate the glycolysis intensity in cells by three main parameters of glycolytic function: glycolysis by adding saturating amounts of glucose to the system, glycolytic capacity by the introduction of oligomycin, and glycolytic reserve by using the inhibitor of this glycolysis 2-fluoro-2-deoxy-D-glucose.

[8] = MTT, 72 h, non-transformed cells

T2 sequence (P00406 whole entry, other chains not shown): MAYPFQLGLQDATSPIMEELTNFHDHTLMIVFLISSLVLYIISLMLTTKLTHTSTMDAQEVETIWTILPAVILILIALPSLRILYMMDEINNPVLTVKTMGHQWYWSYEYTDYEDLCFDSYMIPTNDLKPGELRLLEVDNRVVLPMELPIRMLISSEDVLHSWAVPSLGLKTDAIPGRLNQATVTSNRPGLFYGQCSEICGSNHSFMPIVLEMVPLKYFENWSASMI
T2 sequence (P05505 whole entry, other chains not shown): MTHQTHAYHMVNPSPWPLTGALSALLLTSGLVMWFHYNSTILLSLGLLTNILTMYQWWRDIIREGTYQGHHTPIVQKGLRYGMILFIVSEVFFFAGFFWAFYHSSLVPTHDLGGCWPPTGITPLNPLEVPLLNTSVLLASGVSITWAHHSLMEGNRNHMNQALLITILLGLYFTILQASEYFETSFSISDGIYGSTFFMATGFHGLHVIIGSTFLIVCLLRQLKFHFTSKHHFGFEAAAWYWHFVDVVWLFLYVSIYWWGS
T1 sequence (Q920L2 35-656): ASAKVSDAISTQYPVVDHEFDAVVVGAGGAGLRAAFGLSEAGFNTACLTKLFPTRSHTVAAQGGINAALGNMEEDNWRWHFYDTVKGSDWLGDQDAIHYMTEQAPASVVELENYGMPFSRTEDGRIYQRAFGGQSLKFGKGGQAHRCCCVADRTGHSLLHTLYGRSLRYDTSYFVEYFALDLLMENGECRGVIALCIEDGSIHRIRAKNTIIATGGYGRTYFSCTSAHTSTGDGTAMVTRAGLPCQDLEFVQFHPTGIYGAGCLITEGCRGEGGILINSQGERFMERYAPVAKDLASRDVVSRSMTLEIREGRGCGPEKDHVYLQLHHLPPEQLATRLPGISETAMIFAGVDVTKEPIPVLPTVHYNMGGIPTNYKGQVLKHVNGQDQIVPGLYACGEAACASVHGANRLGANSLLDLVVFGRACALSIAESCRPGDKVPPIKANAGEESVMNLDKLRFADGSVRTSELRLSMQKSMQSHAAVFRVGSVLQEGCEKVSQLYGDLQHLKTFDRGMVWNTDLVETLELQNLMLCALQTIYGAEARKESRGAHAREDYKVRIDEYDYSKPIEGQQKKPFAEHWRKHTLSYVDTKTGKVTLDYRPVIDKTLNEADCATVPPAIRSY
T1 sequence (P21913 31-282): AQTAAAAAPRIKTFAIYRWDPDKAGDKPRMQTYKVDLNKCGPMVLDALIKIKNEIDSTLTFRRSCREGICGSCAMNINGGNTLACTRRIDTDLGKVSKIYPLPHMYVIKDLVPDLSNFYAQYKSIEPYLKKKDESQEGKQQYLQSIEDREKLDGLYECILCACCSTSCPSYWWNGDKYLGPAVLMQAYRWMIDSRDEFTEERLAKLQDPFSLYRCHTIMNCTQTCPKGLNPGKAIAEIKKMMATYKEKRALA
T1 sequence (Q641Z9 30-169 limits assumed): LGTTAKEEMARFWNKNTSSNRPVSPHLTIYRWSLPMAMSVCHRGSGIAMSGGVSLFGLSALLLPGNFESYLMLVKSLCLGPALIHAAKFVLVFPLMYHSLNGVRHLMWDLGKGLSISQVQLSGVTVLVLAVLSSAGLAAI
T1 sequence (Q6PCT8 57-159): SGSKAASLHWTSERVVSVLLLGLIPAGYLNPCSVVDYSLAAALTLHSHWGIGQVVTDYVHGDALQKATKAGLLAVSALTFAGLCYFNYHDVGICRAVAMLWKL

| IC50 (A549 (lung carcinoma); MTT, 72 h) [nM] | IC50 (MCF7 (breast cancer); MTT, 72 h) [nM] | IC50 ([5]; MTT, 72 h) [nM] | SMILES | Mitochondrial Swelling, % of Ca2+-Induced Swelling (rat heart mitochondria) | % of MDA relative to control [1] [%] | Work of Respiratory Chain Complexes, % Decrease in OCR of Control, II [2] | Work of Respiratory Chain Complexes, % Decrease in OCR of Control, IV [6] | IC50 (A549 (lung carcinoma); Homo sapiens, A549, 72 h) [nM] | IC50 (MCF7 (breast cancer); Homo sapiens, MCF7, 72 h) [nM] | IC50 ([3]; Homo sapiens) [nM] | IC50 ([4]; Homo sapiens, HEK293, 72 h) [nM] | IC50 ([5]; Homo sapiens, HCT-116, 72 h) [nM] | IC50 ([3]; MTT) [nM] | IC50 [4, 8] [nM] | Effect on glycolytic function (extracellular acidification rate) [7] | melting point [°C] | other results |
| --- | --- | --- | --- | --- | --- | --- | --- | --- | --- | --- | --- | --- | --- | --- | --- | --- | --- |
| – | – | – | COc1cccc2c1C(=O)c1c(O)c3c(c(O)c1C2=O)C[C@@](O)(C(=O)CO)C[C@@H]3O[C@H]1C[C@H](N)[C@H](O)[C@H](C)O1 [a, doxorubicin, reference compound] | 116.20 ± 10.98% | 236.68 ± 13.06 | 70.54 ± 0.64% | 37.73 ± 0.34% | – | – | – | – | – | – | – | – | – | IC50 (A549 (lung carcinoma); Homo sapiens, A549, 72 h, MTT, 72 h): 380 ± 20 nM; IC50 (MCF7 (breast cancer); Homo sapiens, MCF7, 72 h, MTT, 72 h): 460 ± 30 nM; Work of Respiratory Chain Complexes, % Decrease in OCR of Control, II ([2]; listed as doxorubicin): more than 70%; IC50 ([3]; Homo sapiens, MTT): 290 ± 20 nM; IC50 ([4]; Homo sapiens, HEK293, 72 h, MTT, 72 h, non-transformed cells): 6780 ± 760 nM; IC50 ([5]; Homo sapiens, HCT-116, 72 h, MTT, 72 h): 140 ± 10 nM |
| – | – | – | COc1cccc2c1C(=O)c1c(O)c3c(c(O)c1C2=O)C[C@@](O)(C(C)=O)C[C@@H]3O[C@H]1C[C@H](N)[C@H](O)[C@H](C)O1 [b, daunorubicin, reference compound] | 40.98 ± 3.86% | 226.05 ± 6.60 | 72.12 ± 0.96% | — (“—” indicates activity absence for compounds (≤10%) in a particular test) | 330 ± 10 | 840 ± 170 | 630 ± 30 | 12300 ± 1170 | 120 | – | – | – | – | Work of Respiratory Chain Complexes, % Decrease in OCR of Control, II ([2]; listed as daunorubicin): more than 70% |
| 4520 ± 570 | 3030 ± 70 | 2520 ± 20 | COc1cccc2c1C(=O)c1c(O)c3c(c(O)c1C2=O)CC(O)(C(=O)CO)CC3OC1CC(NCC2C(=O)OC3CC4(C)CCCC(C)C45OC5C32)C(O)C(C)O1 (stereo not shown) [Compound 5a] | — (“—” indicates activity absence for compounds (≤10%) in a particular test) | – | — (“—” indicates activity absence for compounds (≤10%) in a particular test) | 23.99 ± 4.41% | – | – | – | – | – | 2470 ± 70 | 4500 ± 320 | most pronounced ability to reduce the acidification rate of the medium by cells | – | – |
| – | – | – | COc1cccc2c1C(=O)c1c(O)c3c(c(O)c1C2=O)C[C@@](O)(C(=O)CO)C[C@@H]3O[C@H]1C[C@H](NC[C@H]2C(=O)O[C@@H]3CC4=CCC[C@H](C)[C@@]4(C)[C@@H](O)[C@@H]32)[C@H](O)[C@H](C)O1 [Compound 7a, (8S,10S)-6,8,11-Trihydroxy-10-(((2R,4S,5S,6S)-5-hydroxy-4-((((3S,3aS,4S,4aR,5S,9aR)-4-hydroxy-4a,5-dimethyl-2-oxo-2,3,3a,4,4a,5,6,7,9,9a-decahydronaphtho[2,3-b]furan-3-yl)methyl)amino)-6-methyltetrahydro-2H-pyran-2-yl)oxy)-8-(2-hydroxyacetyl)-1-methoxy-7,8,9,10-tetrahydrotetracene-5,12-dione] | — (“—” indicates activity absence for compounds (≤10%) in a particular test) | – | 33.21 ± 3.84% | 38.16 ± 0.84% | 5430 ± 160 | 6030 ± 110 | 4220 ± 100 | 10500 ± 880 | 920 | – | – | – | 170 to 175 | – |
| – | – | – | COc1cccc2c1C(=O)c1c(O)c3c(c(O)c1C2=O)C[C@@](O)(C(C)=O)C[C@@H]3O[C@H]1C[C@H](NC[C@H]2C(=O)O[C@@H]3CC4=CCC[C@H](C)[C@@]4(C)[C@@H](O)[C@@H]32)[C@H](O)[C@H](C)O1 [Compound 7b, (8S,10S)-8-Acetyl-6,8,11-trihydroxy-10-(((2R,4S,5S,6S)-5-hydroxy-4-((((3S,3aS,4S,4aR,5S,9aR)-4-hydroxy-4a,5-dimethyl-2-oxo-2,3,3a,4,4a,5,6,7,9,9a-decahydronaphtho[2,3-b]furan-3-yl)methyl)amino)-6-methyltetrahydro-2H-pyran-2-yl)oxy)-1-methoxy-7,8,9,10-tetrahydrotetracene-5,12-dione] | — (“—” indicates activity absence for compounds (≤10%) in a particular test) | – | 21.04 ± 4.22% | 46.08 ± 3.42% | 2010 ± 90 | 1900 ± 70 | 1950 ± 10 | 6420 ± 210 | 200 ± 10 | – | – | – | 155 to 162 | – |
| 1420 ± 50 | 1240 ± 230 | 1010 ± 10 | COc1cccc2c1C(=O)c1c(O)c3c(c(O)c1C2=O)C[C@@](O)(C(C)=O)C[C@@H]3O[C@H]1C[C@H](NC[C@H]2C(=O)O[C@@H]3C[C@@]4(C)CCCC(C)=C4C[C@@H]32)[C@H](O)[C@H](C)O1 [Compound 3b] | 26.45 ± 7.14% | – | – | — (“—” indicates activity absence for compounds (≤10%) in a particular test) | – | – | – | – | – | 590 ± 50 | 6370 ± 240 | most pronounced ability to reduce the acidification rate of the medium by cells | – | – |
